Consider twelve molecules from article PMC4718634, “Murine GPRC6A Mediates Cellular Responses to L-Amino Acids, but Not Osteocalcin Variants” (PLoS ONE, 2016).

As a reminder, the EC50 is the midpoint of the concentration-response curve. A higher EC50 goes with a less potent agent.

Test [1] deals with GPRC6A. Particulars: ref [6] (supplement list); cited from earlier work. An excerpt:
(§1) Supplement pone.0146846.s004.docx, table 1 | column: Functional assay

The target in test [2] is T1, mGPRC6A (mouse GPRC6A) (Mus musculus, UniProt Q8K4Z6).
T1 sequence (Q8K4Z6 21-928): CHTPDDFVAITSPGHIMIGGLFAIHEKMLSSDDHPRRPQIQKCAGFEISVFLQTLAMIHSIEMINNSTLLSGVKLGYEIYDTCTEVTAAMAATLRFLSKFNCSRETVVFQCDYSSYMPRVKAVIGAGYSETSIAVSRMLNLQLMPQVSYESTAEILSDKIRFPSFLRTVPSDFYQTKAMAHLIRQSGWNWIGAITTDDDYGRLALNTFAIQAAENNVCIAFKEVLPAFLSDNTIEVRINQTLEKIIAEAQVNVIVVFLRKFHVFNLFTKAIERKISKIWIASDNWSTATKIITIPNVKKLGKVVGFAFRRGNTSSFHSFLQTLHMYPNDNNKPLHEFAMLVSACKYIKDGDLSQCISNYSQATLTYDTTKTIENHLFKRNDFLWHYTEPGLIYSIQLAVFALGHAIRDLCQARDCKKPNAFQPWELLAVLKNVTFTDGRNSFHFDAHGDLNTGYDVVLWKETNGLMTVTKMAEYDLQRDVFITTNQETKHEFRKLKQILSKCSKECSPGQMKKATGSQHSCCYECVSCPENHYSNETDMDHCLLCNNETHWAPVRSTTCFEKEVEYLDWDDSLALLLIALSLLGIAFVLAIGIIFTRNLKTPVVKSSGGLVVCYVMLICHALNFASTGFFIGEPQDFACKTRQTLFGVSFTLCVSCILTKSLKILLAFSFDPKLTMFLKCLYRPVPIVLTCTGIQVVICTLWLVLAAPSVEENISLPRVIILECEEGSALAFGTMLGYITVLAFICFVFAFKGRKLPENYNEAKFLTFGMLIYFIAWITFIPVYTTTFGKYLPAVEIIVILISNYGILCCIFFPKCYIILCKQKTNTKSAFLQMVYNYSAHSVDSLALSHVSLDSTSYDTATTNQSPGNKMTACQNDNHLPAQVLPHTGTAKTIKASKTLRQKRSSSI
Nature of the test: Ca^2+i mobilisation, FlpIn-TREx-HEK293-mGPRC6A cells. The test is classed as cell-based. The following applies: for activity in calcium mobilisation assays: with co-expressed Gαq or GαqG66D. The protocol:
pcDNA 5/FRT/TO constructs were isogenically integrated into a FlpIn-TREx-HEK293 cell line (Life Technologies). FlpIn-TREx-HEK293-mGPRC6A and FlpIn-TREx-HEK293-hGPRC6A cells were then selected using 600 μg/ml hygromycin and 5 μg/ml blasticidin and grown in culture medium consisting of Dulbecco’s Modified Eagle Medium (DMEM), supplemented with 10% (v/v) foetal bovine serum (FBS) at 37°C in 5% CO2 and were sub-cultured in a 1:3 ratio every 3–4 days. Cells were cultured overnight in the presence of 1 μg/ml tetracycline to induce GPRC6A expression. […] 48 h after transfection, cells were selected using 3 μg/ml puromycin and grown as above.
FlpIn-TREx-HEK293-mGPRC6A cells were seeded into T75 flasks at 70% confluency. Cells were transfected with 15μg of plasmid DNA (Gαq or GαqG66D) with Lipofectamine LTX according to manufacturer's instructions, then incubated for 24h at 37°C in 5% CO2. Cells were plated into 96-well plates (10^5 cells/well) and equilibrated at 37°C in 5% CO2 for 4-6h to adhere, whereupon cells were serum starved overnight at 37°C in 5% CO2. For the assay, cells were washed twice in Ca^2+ assay buffer (150 mM NaCl, 2.6 mM KCl, 1.2 mM MgCl2, 10 mM dextrose, 10 mM HEPES, 2.2 mM CaCl2, 0.5% (w/v) BSA and 4 mM probenecid; pH 7.4). Buffer was then replaced with Ca^2+ assay buffer containing 1μM Fluo-4-AM and incubated for 1h at 37°C in 5% CO2. Cells were washed twice more and replaced with Ca^2+ assay buffer at 37°C. Serial dilutions of test agonists were added by injection in a Flexstation™ (Molecular Devices) and fluorescence was measured at 485nm excitation and 520nm emission wavelengths. Agonist responses were normalised to the peak of response to 100 μM ATP.
(§2) Data for all HEK293 assays represent the mean ± SEM of at least three independent experiments (except cell impedance, n = 2). For GLP-1 release, the data represent mean ± SEM of three to five independent experiments (except for OCN, wash; n = 2). For insulin release assays, data represent the mean ± SEM of three independent experiments (except for islet studies; n = 2). Insulin release data were normalised to the response to vehicle in either low or high [glucose]. Statistical analysis for GLP-1 release data were performed by one-way ANOVA, followed by Sidak’s multiple comparisons test (treating wash / no wash datasets separately). Statistical analyses for insulin release data were performed by two-way ANOVA (with [glucose] and drug treatment as group variables), followed by Sidak’s multiple comparisons test. Where only high [glucose] groups were evaluated, statistical analysis was by one-way ANOVA followed by Sidak’s multiple comparisons test.

The test system of test [3] is INS-1(832) cells. Put plainly: Label-free cell impedance, INS-1(832) cells. The test is classed as cell-based, rat. Particulars: Gprc6a-negative, EBSS, 2.8 mM glucose, Fig 7, two-way ANOVA, *P < 0.05, **P < 0.01 vs Vehicle. As for the experimental part: For INS-1 cells, 100 μl of medium (RPMI 1640 no glucose, 10% FBS, 55 μM β-mercaptoethanol, 1 mM sodium pyruvate, 10 mM HEPES, 100 U/ml penicillin, 100 μg/ml streptomycin, 11.1 mM glucose) was added per well to an E-plate 96 and a background reading taken. Cells were seeded at 2 x 10^4 / well and the plates incubated in the instrument for 48 h. On the day of the experiment, media was changed to EBSS buffer (180 μl; 2.8 mM glucose, 1.8 mM CaCl2, 5.3 mM KCl, 0.8 mM MgSO4, 117 mM NaCl, 26 mM NaHCO3, 1 mM NaH2PO4). After 2 h incubation, cells were stimulated with 20 μl test compound (10 x final) prepared in the same buffer. Data capture and analysis were as for HEK293 cells.

The subject of test [4] is GLUTag cells. Nature of the test: GLP-1 release from GLUTag cells. The test is classed as cell-based, murine. The following applies: 0.01–10 ng/ml; with or without cell washing; 2 h; Fig 6A; listed as Human synthetic OCN. The protocol:
Intestinal L-cell model GLUTag cells were seeded in 24-well plates coated with Matrigel and incubated for 6 days in DMEM with 10% FBS, 100 U/ml penicillin, 100 μg/ml streptomycin at 37°C in 5% CO2 and grown for 4–5 days. Where indicated, cells were washed (1 or 2 x 1h) with Krebs-HEPES buffer (20 mM HEPES, 118 mM NaCl, 4.7 mM KCl, 1.2 mM MgSO4, 5 mM NaHCO3, 1.2 mM KH2PO4, 2.5 mM CaCl2, 5.5 mM glucose, 0.2% BSA (w/v), pH 7.2) containing vildagliptin (300 μM) prior to addition of test compounds in the same buffer. After 2 h incubation at 37°C in 5% CO2, the supernatant was recovered and centrifuged at 500 rpm for 5 min. Where used, NPS-2143 pre-treatment was for 30 min.
GLP-1 content in the cell supernatant was measured by ELISA (EGLP-35K, Millipore), according to manufacturer’s instructions after overnight incubation of 15 μl supernatant in 100 μl Krebs-HEPES buffer at 4°C. After 5 x washes, 200 μl of detection conjugate was added and incubated for 2 h at RT. After 3 x washes the reaction was developed with 200 μl of diluted substrate (1:200) for 20 min and terminated by addition of 50 μl stop solution. After 5 min, fluorescence was then measured using 355 nm excitation and 460 nm emission, transforming the obtained signal into pmol GLP-1/well/ml and corrected for GLUTag cell protein content as determined using the method of Bradford (1976).
as §2, with “Concentration-response data were analysed using a three or four parameter logistic function (Motulsky & Christopoulos, 2004) to generate estimates of agonist potency (LogEC50). Data” for “Data”

The test system of test [5] is 22RV1 / PC-3. Particulars: endogenous; ref [9] (supplement list); cited from earlier work.
Text: as §1

Test [6] has as its system mC6A. The following applies: ref [10] (supplement list); cited from earlier work.
Text: as §1

Test [7] has as its system GPRC6A. Particulars: HEK293, mouse GPRC6A with human OCN; ref [11]; cited from earlier work. From the text: Additional interest in GPRC6A has emerged due to several studies reporting that it mediates the metabolic and endocrine effects of the de-carboxylated form of the osteoblast-derived peptide, osteocalcin (OCN).

“Also recorded” adds a separate entry of the source. Bridge positions count the residues as written; N and C are the ends. Ends that are not written are not given here. Some results are limits rather than exact numbers.

Take `[Cl][Gd]([Cl])[Cl]` [GdCl3]: in test [1], the SRE-reporter gene response result is “pERK1/2 – response to Ca^2+, Mg^2+, Gd^3+, Al^3+, NPS R568 SRE-reporter gene – response to CaCl2, SrCl2, MgCl2, GdCl3 and OCN”.

`NC(=O)CC[C@H](N)C(=O)O` [L-glutamine]: in test [2], the EC50 was more than 1000 µM and the “activity in calcium mobilisation assays” value is recorded as “little or no activity”.

Regarding “YLYQWLGAPVPYPDPLEPRREVCELNPDCDELADHIGFQEAYRRFYGPV-NH2/-COOH (disulfide) [human synthetic OCN, synthetic de-carboxylated human osteocalcin, Federation Bioscience]”, the “change in cell impedance (cell index)” value in test [3] (listed as synthetic human OCN) is on record as “significant changes in cell impedance; also recorded: Concentration-dependent increases in cell index”. In addition, the “GLP-1 release, OCN” value in test [4] is given as “did not significantly modulate GLP-1 release”.

For `[Cl-].[Cl-].[Sr+2]` [SrCl2], the SRE-reporter gene response result in test [1] was “pERK1/2 – response to Ca^2+, Mg^2+, Gd^3+, Al^3+, NPS R568 SRE-reporter gene – response to CaCl2, SrCl2, MgCl2, GdCl3 and OCN”.

Turning to `C[C@]1(O)CC[C@H]2[C@@H]3CCC4=CC(=O)CCC4=C3C=C[C@@]21C` [R1881], the “PSA, Runx2 expression response” value in test [5] was “pERK1/2 – response to Ca^2+, ZnCl2, OCN, Arginine, Testosterone-BSA Proliferation – response to Ca^2+, OCN PSA, Runx2 expression – response to OCN, Arg, R1881 Chemotaxis (22RV1) – response to Ca^2+, OCN”. Also, in test [6], the SRE-reporter gene response entry is “pERK1/2 – response to Testosterone-BSA, R1881 SRE-reporter gene – response to R1881, Ca^2+” and the pERK1/2 response result is “pERK1/2 – response to Testosterone-BSA, R1881 SRE-reporter gene – response to R1881, Ca^2+”.

Regarding “mouse OCN: in b69: synthetic mouse OCN of Fig 7 (GSPEFYLGASVPSPDPLEPTREQCELNPACDELSDQYGLKTAYKRIYGITI; ends and bridges not checked; cysteine pairing not given here)”, the “change in cell impedance (cell index)” value in test [3] is “significant, concentration-dependent activity”.

In the case of `N[C@@H](Cc1c[nH]cn1)C(=O)O` [L-histidine], in test [2], the EC50 is more than 1000 µM and the “activity in calcium mobilisation assays” value is reported as “little or no activity”.

Turning to `[Cl-].[Cl-].[Mg+2]` [MgCl2], in test [1], the SRE-reporter gene response result is “pERK1/2 – response to Ca^2+, Mg^2+, Gd^3+, Al^3+, NPS R568 SRE-reporter gene – response to CaCl2, SrCl2, MgCl2, GdCl3 and OCN”.

As to `COc1cccc([C@@H](C)NCCCc2ccccc2Cl)c1` [NPS R568], the pERK1/2 response entry in test [1] was “pERK1/2 – response to Ca^2+, Mg^2+, Gd^3+, Al^3+, NPS R568 SRE-reporter gene – response to CaCl2, SrCl2, MgCl2, GdCl3 and OCN”.

On to `CC(C)[C@H](N)C(=O)O` [L-valine], for which, in test [2], the EC50 was more than 1000 µM and the “activity in calcium mobilisation assays” value is given as “little or no activity”.

On to “human OCN: in b69: synthetic human OCN of Fig 7; in b64: human OCN of ref 11 (YLYQWLGAPVPYPDPLEPRREVCELNPDCDELADHIGFQEAYRRFYGPV; disulfide 23-29 (inferred); not fully specified; printed as YLYQWLGAPVPYPDPLEPRREVCELNPDCDELADHIGFQEAYRRFYGPV-NH2/-COOH; ends not checked; UniProt P02818 52-100, looked up)”, for which the “OCN concentration stimulating cAMP accumulation” value in test [7] was 60 ng/mL. Besides, in test [3], the “change in cell impedance (cell index)” value is “significant, concentration-dependent activity”.

Take `[Ca+2].[Cl-].[Cl-]` [CaCl2]: the SRE-reporter gene response result in test [1] is “pERK1/2 – response to Ca^2+, Mg^2+, Gd^3+, Al^3+, NPS R568 SRE-reporter gene – response to CaCl2, SrCl2, MgCl2, GdCl3 and OCN”.
